In ChEMBL document CHEMBL1129677, “3 alpha-(4'-substituted phenyl)tropane-2 beta-carboxylic acid methyl esters: novel ligands with high affinity and selectivity at the dopamine transporter” (J Med Chem, 1996):

Key:
[1] = molecular target: Norepinephrine transporter (Rattus norvegicus, UniProt Q9WTR4); assay: Binding potency for Norepinephrine transporter using [3H]NE
[2] = molecular target: Sodium-dependent dopamine transporter (Rattus norvegicus, UniProt P23977); assay: Inhibition of [3H]WIN-35428 binding to Dopamine transporter
[3] = molecular target: Sodium-dependent serotonin transporter (Rattus norvegicus, UniProt P31652); assay: Binding potency for Serotonin transporter using [3H]- paroxetine
Sodium-dependent serotonin transporter, sequence (P31652 whole entry): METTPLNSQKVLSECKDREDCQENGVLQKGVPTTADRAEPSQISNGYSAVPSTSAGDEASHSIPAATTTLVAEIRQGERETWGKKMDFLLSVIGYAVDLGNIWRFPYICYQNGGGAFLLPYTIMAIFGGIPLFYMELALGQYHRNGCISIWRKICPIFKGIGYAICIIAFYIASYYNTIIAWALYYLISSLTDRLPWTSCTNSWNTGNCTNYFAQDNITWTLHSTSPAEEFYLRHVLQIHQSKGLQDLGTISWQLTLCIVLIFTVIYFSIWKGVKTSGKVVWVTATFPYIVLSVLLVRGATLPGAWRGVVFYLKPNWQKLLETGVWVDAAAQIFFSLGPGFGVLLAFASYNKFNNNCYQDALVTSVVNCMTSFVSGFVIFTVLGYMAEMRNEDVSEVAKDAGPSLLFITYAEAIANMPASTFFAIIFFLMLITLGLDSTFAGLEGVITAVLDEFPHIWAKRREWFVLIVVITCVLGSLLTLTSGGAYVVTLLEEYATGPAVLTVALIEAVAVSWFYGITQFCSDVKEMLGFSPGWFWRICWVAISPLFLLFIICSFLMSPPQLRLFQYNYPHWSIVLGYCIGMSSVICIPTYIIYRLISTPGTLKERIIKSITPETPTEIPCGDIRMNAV

Sodium-dependent dopamine transporter, sequence (P23977 whole entry): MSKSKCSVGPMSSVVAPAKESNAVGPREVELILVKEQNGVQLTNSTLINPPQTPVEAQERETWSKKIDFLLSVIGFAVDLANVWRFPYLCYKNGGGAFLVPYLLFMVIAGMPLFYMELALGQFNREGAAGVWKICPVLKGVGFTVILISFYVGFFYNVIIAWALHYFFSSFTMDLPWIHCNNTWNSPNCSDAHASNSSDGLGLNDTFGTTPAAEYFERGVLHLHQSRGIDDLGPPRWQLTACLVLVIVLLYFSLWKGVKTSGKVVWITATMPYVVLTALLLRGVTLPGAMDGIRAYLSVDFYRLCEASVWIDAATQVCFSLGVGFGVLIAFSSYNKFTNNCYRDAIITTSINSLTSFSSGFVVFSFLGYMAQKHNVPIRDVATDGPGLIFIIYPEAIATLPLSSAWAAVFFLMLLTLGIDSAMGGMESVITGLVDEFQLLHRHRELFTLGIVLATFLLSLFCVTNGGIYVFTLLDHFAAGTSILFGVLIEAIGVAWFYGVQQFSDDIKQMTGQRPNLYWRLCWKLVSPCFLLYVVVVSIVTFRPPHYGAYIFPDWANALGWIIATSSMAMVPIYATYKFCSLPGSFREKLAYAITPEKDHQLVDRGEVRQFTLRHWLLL
Norepinephrine transporter, sequence (Q9WTR4 whole entry): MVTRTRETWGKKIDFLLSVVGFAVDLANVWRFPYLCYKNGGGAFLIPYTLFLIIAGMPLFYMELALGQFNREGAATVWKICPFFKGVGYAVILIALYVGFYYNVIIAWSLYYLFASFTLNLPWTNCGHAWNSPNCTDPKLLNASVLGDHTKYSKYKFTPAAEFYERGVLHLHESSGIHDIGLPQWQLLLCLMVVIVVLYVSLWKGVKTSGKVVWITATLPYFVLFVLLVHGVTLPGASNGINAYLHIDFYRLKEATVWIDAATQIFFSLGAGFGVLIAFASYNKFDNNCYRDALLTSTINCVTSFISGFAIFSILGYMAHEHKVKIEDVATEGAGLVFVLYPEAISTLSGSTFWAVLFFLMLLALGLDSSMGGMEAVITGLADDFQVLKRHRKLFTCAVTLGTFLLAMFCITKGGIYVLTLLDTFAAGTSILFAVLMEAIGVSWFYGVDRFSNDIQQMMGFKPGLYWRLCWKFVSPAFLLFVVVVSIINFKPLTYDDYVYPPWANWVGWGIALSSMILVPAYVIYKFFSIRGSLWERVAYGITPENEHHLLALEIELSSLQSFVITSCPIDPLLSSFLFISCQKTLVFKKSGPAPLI

SMILES	IC50 [1] [nM]	IC50 [2] [nM]	IC50 [3] [nM]
COC(=O)C1C(c2ccc(C)cc2)CC2CCC1N2C (centres undefined)	275	10.2	–
COC(=O)[C@H]1[C@@H](c2ccc(F)cc2)C[C@H]2CC[C@H]1N2C (stereo in doubt; 1a)	–	–	810
COC(=O)[C@H]1[C@@H](c2ccc(F)cc2)C[C@H]2CC[C@H]1N2C (stereo in doubt; 2a)	–	–	5060
COC(=O)C1C(c2ccc(Cl)cc2)CC2CCC1N2C (stereo in doubt; 2c)	–	2.4	998
COC(=O)[C@@H]1C2CC[C@H](C[C@@H]1c1ccccc1)N2C (stereo in doubt; 2e)	–	101	–
COC(=O)C1C(c2ccc(I)cc2)CC2CCC1N2C (stereo in doubt; form 1)	52.4	2.85	–
